Test [1] is described as follows: Antimicrobial activity against Salmonella Newport 03-8748 by Etest. Format: functional, Salmonella enterica subsp. enterica serovar Newport. To be noted: Salmonella enterica.
Test [2] deals with Escherichia coli. Description: Antimicrobial activity against Escherichia coli 03-8748TC1 transconjugant expressing IncI1 plasmid-encoded beta lactamase CTX-M-1 by Etest. It is filed as functional.
Test [3] deals with Salmonella typhimurium. Description: Antimicrobial activity against Salmonella Typhimurium 05-9280 by Etest. The note with it: Salmonella enterica. It is filed as functional, Salmonella enterica subsp. enterica serovar Typhimurium.
For test [4], the system named is Escherichia coli. Kind of test: Antimicrobial activity against Escherichia coli 05-9280TC1 transconjugant expressing IncI1 plasmid-encoded beta lactamase CTX-M-1 by Etest. It is filed as functional.
Another test has as its system Salmonella. Kind of test: Antimicrobial activity against Salmonella Llandoff 06CEB6542SAL by Etest. Format: functional.
The subject of test [5] is Escherichia coli. Description: Antimicrobial activity against Escherichia coli 06CEB6542SALTC1 transconjugant expressing IncI1 plasmid-encoded beta lactamase CTX-M-1 by Etest. Format: functional.
Test [6] deals with Salmonella typhimurium. Kind of test: Antimicrobial activity against Salmonella Typhimurium 06-6550 by Etest. Format: functional, Salmonella enterica subsp. enterica serovar Typhimurium. The note with it: Salmonella enterica.
Test [7] concerns Escherichia coli. Description: Antimicrobial activity against Escherichia coli 06-6550TC1 transconjugant expressing IncI1 plasmid-encoded beta lactamase CTX-M-1 by Etest. It is filed as functional.
Test [8] can be described thus: Antimicrobial activity against Salmonella London 07-819 by Etest. Format: functional, Salmonella enterica subsp. enterica serovar London. To be noted: Salmonella enterica.
Test [9] has as its system Escherichia coli. Description: Antimicrobial activity against Escherichia coli 07-819TC1 transconjugant expressing IncI1 plasmid-encoded beta lactamase CTX-M-1 by Etest. It is filed as functional.
Test [10] deals with Salmonella typhimurium. Description: Antimicrobial activity against Salmonella Typhimurium 08-843 by Etest. It is filed as functional, Salmonella enterica subsp. enterica serovar Typhimurium. To be noted: Salmonella enterica.
For test [11], the system named is Escherichia coli. Description: Antimicrobial activity against Escherichia coli 08-843TC1 transconjugant expressing IncI1 plasmid-encoded beta lactamase CTX-M-1 by Etest. Format: functional.
In test [12] the test system is Salmonella typhimurium. Description: Antimicrobial activity against Salmonella Typhimurium 08-1537 by Etest. Format: functional, Salmonella enterica subsp. enterica serovar Typhimurium. To be noted: Salmonella enterica.
Test [13] concerns Escherichia coli. Kind of test: Antimicrobial activity against Escherichia coli 08-1537TC1 transconjugant expressing IncI1 plasmid-encoded beta lactamase CTX-M-1 by Etest.
The subject of test [14] is Salmonella typhimurium. Kind of test: Antimicrobial activity against Salmonella Typhimurium 08-1745 by Etest. It is filed as functional, Salmonella enterica subsp. enterica serovar Typhimurium. To be noted: Salmonella enterica.
Test [15] deals with Salmonella typhimurium. Kind of test: Antimicrobial activity against Salmonella Typhimurium 08-2211 by Etest. Format: functional, Salmonella enterica subsp. enterica serovar Typhimurium. The note with it: Salmonella enterica.
A short description of test [16]: Antimicrobial activity against Salmonella 4,5,12:i:- 08-2712 by Etest. It is filed as functional, Salmonella enterica subsp. enterica serovar 4,[5],12:i:-. To be noted: Salmonella enterica.
Test [17] deals with Escherichia coli. Kind of test: Antimicrobial activity against Escherichia coli 08-2712TC1 transconjugant expressing IncI1 plasmid-encoded beta lactamase CTX-M-1 by Etest.

SMILES strings stand for the structures. ≈ marks a conversion by molar mass, not a printed value.

As to `CC(C)(O/N=C(\C(=O)N[C@@H]1C(=O)N2C(C(=O)[O-])=C(C[n+]3ccccc3)CS[C@H]12)c1csc(N)n1)C(=O)O` [CEFTAZIDIME], the minimum inhibitory concentration (MIC) (commonly the lowest concentration found to suppress growth) in test [1] was over 256 µg/mL; in the test on Escherichia coli [2], 256 µg/mL (≈ 468 µM); in the test with Salmonella typhimurium [3], over 256 µg/mL; in the test with Escherichia coli [4], over 256 µg/mL; with Salmonella, 64 µg/mL (≈ 117 µM); in the test with Escherichia coli [5] it was 8 µg/mL. Further, the minimal inhibitory concentration (MIC) in the test with Salmonella typhimurium [6] was 256 µg/mL (≈ 468 µM); in the test on Escherichia coli [7], 64 µg/mL (≈ 117 µM); in test [8], over 256 µg/mL; against Escherichia coli [9] it was 256 µg/mL (≈ 468 µM); against Salmonella typhimurium [10], 256 µg/mL (≈ 468 µM); against Escherichia coli [11] it was 256 µg/mL (≈ 468 µM). Moreover, the MIC in the test on Salmonella typhimurium [12] was over 256 µg/mL; in the test with Escherichia coli [13], 128 µg/mL (≈ 234 µM); in the test on Salmonella typhimurium [14], over 256 µg/mL; against Salmonella typhimurium [15] it was 256 µg/mL (≈ 468 µM); in test [16], 256 µg/mL (≈ 468 µM); in the test with Escherichia coli [17], 64 µg/mL (≈ 117 µM).

Take `CO/N=C(\C(=O)N[C@@H]1C(=O)N2C(C(=O)O)=C(CSc3nc(=O)c(O)nn3C)CS[C@H]12)c1csc(N)n1` [CEFTRIAXONE]: the MIC was determined as 8 µg/mL (≈ 14.4 µM) in test [1]; 2 µg/mL (≈ 3.61 µM) in the test on Escherichia coli [2]; 32 µg/mL (≈ 57.7 µM) with Salmonella typhimurium [3]; 32 µg/mL (≈ 57.7 µM) in the test with Escherichia coli [4]; 4 µg/mL (≈ 7.21 µM) with Salmonella; 0.5 µg/mL with Escherichia coli [5]. Further, the minimum inhibitory concentration (MIC) in the test with Salmonella typhimurium [6] turned out to be 16 µg/mL (≈ 28.9 µM); against Escherichia coli [7] it was 4 µg/mL (≈ 7.21 µM); in test [8] it was 8 µg/mL (≈ 14.4 µM); in the test on Escherichia coli [9] it was 4 µg/mL (≈ 7.21 µM); against Salmonella typhimurium [10] it was 16 µg/mL (≈ 28.9 µM); with Escherichia coli [11], 8 µg/mL (≈ 14.4 µM). Also, the MIC with Salmonella typhimurium [12] amounted to 64 µg/mL (≈ 115 µM); with Escherichia coli [13] it was 8 µg/mL (≈ 14.4 µM); in the test with Salmonella typhimurium [14], 16 µg/mL (≈ 28.9 µM); against Salmonella typhimurium [15], 8 µg/mL (≈ 14.4 µM); in [16] it was 16 µg/mL (≈ 28.9 µM); in the test with Escherichia coli [17], 8 µg/mL (≈ 14.4 µM).
